Data on one compound can be found in patent US20250177392A1, “BROAD SPECTRUM INHIBITORS OF CYTOMEGALOVIRUS” (MICROBIOTIX, INC., priority 2022, published 2025).

One data set deals with CMV AD169^IE2-YFP. As to the kind of experiment: Anti-CMV activity (IC50) of NAPA compounds, AD169 IE2-YFP reporter virus high-content assay in fibroblasts. Type of data set: cell-based, Human cytomegalovirus. On the procedure: To identify CMV inhibitors, a high-content screening (HCS) early-stage-specific reporter assay using a CMV AD169 yellow-fluorescent protein (YFP) expressing virus (AD169^IE2-YFP) (Gardner et al., Antiviral Res., 113:49-61 (2015)) was developed to screen >112,000 compounds to identify potent inhibitors (IC50<10 μM) of cytomegalovirus having a minimal mammalian cytotoxicity (CC50) of preferably ≥100 μM. As a result, we have identified, isolated, and characterized a novel series of N-arylpyrimidinamines (NAPAs) that inhibit CMV infection. […] Further, the NAPA compounds are broadly effective at inhibiting virus infection of diverse strains and cell types.
The CMV IE1 and IE2 gene products are translated within 3-6 hours post infection (hpi) and function to stimulate viral promoters to initiate transcription of early and late viral genes (Cherrington et al., J. Virol., 63:1435-40 (1989); Meier et al., J. Virol., 71:1246-1255 (1997)). The CMV AD169 variant that expresses a viral protein chimera consisting of IE2-YFP (AD1691E2/YFP) was utilized to quantify virus infection in a high-throughput screen by a robust fluorescent signal localized exclusively to the nucleus (8-24 hpi) (Gardner et al., supra (2015); Cohen et al., Viruses, 8 (10): 295 (2016); Cohen et al., J. Virol., 90:10715-10727 (2016)). Using the AD1691E2-YFP reporter virus assay, a collection of the compound libraries (>112,000 compounds) was screened for inhibitors of the early stages of CMV replication using a confocal fluorescence microscopic plate reader (BioTek Cytation3). Infection was calculated as a percentage of nuclei containing YFP and cycloheximide (8 μM) was used as a positive control. The Z′ factor for the optimized assay was >0.5 which was sufficient to initiate screening.
We evaluated 300 primary hits using an assay funnel designed to prioritize compounds based on antiviral activity, specificity, and drug-like properties. This identified two candidates for hit-to-lead optimization that were not Pan Assay Interference compounds (PAINS) (Baell et al., J. Med. Chem., 53:2719-40 (2010); Capuzzi et al., J. Chem. Inf. Model 57:417-427 (2017); Dahlin et al., Assay Drug Dev. Technol., 14:168-174 (2016)). […] The NAPA series was chosen as the primary hit-to-lead series due to its synthetic accessibility and the >2-log range in potency observed in the preliminary SAR that provides a clear pathway to improving antiviral activity and drug-like properties.

Data set [1] can be described thus: Cytotoxicity (CC50) against Hela cells for 3 d. Type of data set: cell-based. The settings on record: human.
For data set [2], the system named is CMV strains AD169^R and TB40/E. The data set is described as follows: CMV infection assay, strains AD169^R and TB40/E together. It counts as cell-based, Human cytomegalovirus.
For another data set, the system named is EBV Akata. As to the kind of experiment: Herpes virus panel neutralization, EBV. Type of data set: cell-based, Epstein-Barrvirus. On the procedure: (§1) To determine the specificity of MBX-4992, additional neutralization experiments were conducted using a panel of herpes viruses performed in the presence of MBX-4992. […] Collectively, the antiviral activity of MBX-4992 is equivalent to that of GCV indicating specific inhibition of CMV replication.

For the next data set, the system named is HSV-2 G. As to the kind of experiment: Herpes virus panel neutralization, HSV-2. It counts as cell-based, Herpes simplex virus 2. On the procedure:
as §1

Another data set relates to HCMV AD169. The data set is described as follows: Herpes virus panel neutralization, HCMV AD169. It counts as cell-based, Human cytomegalovirus. The procedure:
as §1

The test system of a further data set is GpCMV 22122. The data set is described as follows: Herpes virus panel neutralization, GpCMV. It counts as cell-based, Guinea pig cytomegalovirus. The procedure: as §1
For another data set, the system named is VZV Ellen. As to the kind of experiment: Herpes virus panel neutralization, VZV. Type of data set: cell-based, Varicella-Zoster virus. The procedure:
as §1

In a further data set the test system is AD169^R. The data set is described as follows: Generation of infectious virions (supernatant infectious dose). Type of data set: cell-based, Human cytomegalovirus. The settings on record: MRC5 fibroblasts and ARPE-19 cells, MOI 0.5, 1-20 μM for 5 days. The procedure:
FIGS. 13A and B are graphs showing that MBX-4992 limits the generation of infectious virions in fibroblasts and epithelial cells. MRC5 and ARPE-19 cells infected with AD169^R (MOI 0.5) were treated with DMSO, MBX-4992 (1, 5, 10, and 20 μM), and ganciclovir (5 μM) for 5 days, washed, and replaced with media for 3 days. The supernatant of MRC5 treated-cells (A) and ARPE-19-treated (B) cells was used to infect MRC5 cells. Virus infection was analyzed 24 hpi using GFP fluorescent signal as the readout with a Celigo cytometer. The viral infectious dose (IU/ml) was determined from each condition. The error bars are based on differences of infectious dose from 5 samples. Statistical tests were performed using ordinary one-way ANOVA with multiple comparisons to DMSO treated cells as a control and a Dunnett's post-test ****, p<0.0001.

Another data set deals with TB40/E. As to the kind of experiment: Plaque assay, MBX-4992 and ganciclovir alone and in combination. Particulars: ARPE-19 and NHDF cells, 10 dpi; MBX-4992 1-20 μM, ganciclovir 2.5 μM. Type of data set: cell-based, Human cytomegalovirus.

For orientation: IC50 means the point on the concentration scale where inhibition reaches its midpoint. For orientation: CC50 means the concentration at which the toxic effect on the cells reaches its halfway point. A lower CC50 goes with greater toxicity to the cells.

As for `Cc1nc(Nc2ccc(NC(=O)c3ccco3)cc2)cc(N2CCCC2)n1` [MBX-4992], the “selectivity index (SI)” value in the data set with CMV AD169^IE2-YFP (CC50/IC50) was over 50. For the same compound, the IC50 in the data set with CMV AD169^IE2-YFP (Human betaherpesvirus 5, AD169, Fibroblast) is 1.72 µM; in data set [2] (Human betaherpesvirus 5, AD169, read-out: IC50 values ranging) it was 1.9 to 4.8 µM; in the data set on EBV Akata (human gammaherpesvirus 4), 30.9 µM; in the data set with HSV-2 G (Human alphaherpesvirus 2), over 150 µM; with HCMV AD169 (Human betaherpesvirus 5, AD169), 1.7 µM; with GpCMV 22122 (Caviid betaherpesvirus 2), over 30 µM. Also, in the data set on VZV Ellen (Human alphaherpesvirus 3), the IC50 was over 30 µM. In addition, the CC50 at 3 d in data set [1] is over 100 µM. The infection of trophoblasts result in data set [2] (HRT8svNEO trophoblasts, 24 hpi, IE1 immunostain) was “limited infection”. Also, the SI with EBV Akata is on record as over 3; in the data set on HSV-2 G, 1; in the data set with HCMV AD169 (HCMV AD169), over 88; in the data set with GpCMV 22122 it was under 4; with VZV Ellen, under 5. Moreover, the “generation of infectious virions” value in the data set on AD169^R is given as “significantly decreased generation of infectious AD169^R virions”. For the same compound, the “viral plaques >10,000 μm^2, single drug” value in the data set with TB40/E is “decreased”.
